In patent US6355799B1, “Substituted benzene compounds, process for their preparation, and herbicidal and defoliant compositions containing them” (ISK Americas Incorporated, priority 1997, dated 2002):

Key:
Type in all cases: in vivo
[1] = test system: redroot pigweed (Amaranthus retroflexus, AMARE); assay: Pre-emerge test, greenhouse herbicide activity screening; conditions: pre-emerge, 14 days after application, scale 0-100
In short: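 Visual ratings on a 0-100 scale (0 no damage, 100 all plants dead) were taken at 14 days after treatment. Rates of 15-1000 g ai/ha in acetone, 187 l/ha, were sprayed onto soil one day after planting (pre-emerge) or onto 2-3 leaf plants with 0.25% v/v surfactant (post-emerge).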

[2] = test system: upland rice (Oryza sp., var. Tebonnet, RICE); assay: Post-emerge test, crop safety; conditions: post-emerge, 14 days after application, rating scale 0-100
In short: (§1)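 Fourteen days after spraying, crop and weed injury was graded visually from 0, no effect, to 100, every plant dead. Test substances were dissolved in acetone and applied at 15–1000 g ai/ha with a flat-fan nozzle. Application was either pre-emergence, one day after sowing, or post-emergence at the 2–3 leaf stage.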

[3] = test system: field corn (Zea mays L., var. Dekalb 535, CORN); assay: Post-emerge test, crop safety; conditions: post-emerge, 14 days after application, rating scale 0-100
In short: as §1

[4] = test system: ivyleaf morningglory (Ipomoea hederacea, IPOHE); assay: Post-emerge test, greenhouse herbicide activity screening; conditions: post-emerge, 14 days after application, rating scale 0-100
In short: (§2)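 Compounds in acetone were track-sprayed at 15–1000 g ai/ha: pre-emergence onto soil sown the previous day, then top-watered to incorporate and later bottom-watered; post-emergence onto 2–3 leaf plants with 0.25% v/v surfactant, bottom-watered only. Ratings on a 0–100 phytotoxicity scale were taken at day 14.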

[5] = test system: barnyardgrass (Echinochloa crus-galli, ECHCG); assay: as above; conditions: post-emerge, 14 days after application, rating scale 0-100
In short: as §2

[6] = test system: large crabgrass (Digitaria sanguinalis, DIGSA); assay: as above; conditions: post-emerge, 14 days after application, rating scale 0-100
In short: as §2

[7] = test system: redroot pigweed (Amaranthus retroflexus, AMARE); assay: as above; conditions: post-emerge, 14 days after application, rating scale 0-100
In short: as §2

[8] = test system: johnsongrass (Sorghum halepense, SORHA); assay: as above; conditions: post-emerge, 14 days after application, rating scale 0-100
In short: as §2

[9] = test system: green foxtail (Setaria viridis, SETVI); assay: as above; conditions: post-emerge, 14 days after application, rating scale 0-100
In short: as §2

[10] = test system: sicklepod (Cassia obtusifolia, CASOB); assay: as above; conditions: post-emerge, 14 days after application, rating scale 0-100
In short: as §2

[11] = test system: lambsquarters (Chenopodium album, CHEAL); assay: as above; conditions: post-emerge, 14 days after application, rating scale 0-100
In short: as §2

[12] = test system: velvetleaf (Abutilon theophrasti, ABUTH); assay: as above; conditions: post-emerge, 14 days after application, rating scale 0-100
In short: as §2

[13] = test system: ivyleaf morningglory (Ipomoea hederacea, IPOHE); assay: Pre-emerge test, greenhouse herbicide activity screening; conditions: pre-emerge, 14 days after application, scale 0-100
In short: as §1

[14] = test system: barnyardgrass (Echinochloa crus-galli, ECHCG); assay: as above; conditions: pre-emerge, 14 days after application, scale 0-100
In short: as §1

[15] = test system: large crabgrass (Digitaria sanguinalis, DIGSA); assay: as above; conditions: pre-emerge, 14 days after application, scale 0-100
In short: as §1

[16] = test system: johnsongrass (Sorghum halepense, SORHA); assay: as above; conditions: pre-emerge, 14 days after application, scale 0-100
In short: as §1

[17] = test system: green foxtail (Setaria viridis, SETVI); assay: as above; conditions: pre-emerge, 14 days after application, scale 0-100
In short: as §1

[18] = test system: sicklepod (Cassia obtusifolia, CASOB); assay: as above; conditions: pre-emerge, 14 days after application, scale 0-100
In short: as §1

[19] = test system: lambsquarters (Chenopodium album, CHEAL); assay: as above; conditions: pre-emerge, 14 days after application, scale 0-100
In short: as §1

[20] = test system: velvetleaf (Abutilon theophrasti, ABUTH); assay: as above; conditions: pre-emerge, 14 days after application, scale 0-100
In short: as §1

[21] = test system: upland rice (Oryza sp., var. Tebonnet, RICE); assay: Pre-emerge test, crop safety; conditions: pre-emerge, 14 days after application, scale 0-100
In short: (§3)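 Plants grown in 10 cm pots of sandy loam mix received acetone-dissolved compounds through a moving flat-fan nozzle. Doses ranged from 15 to 1000 g ai/ha. Pre-emerge pots were seeded one day earlier, post-emerge pots 8–21 days earlier. Fourteen days on, each pot was graded 0–100 for damage.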

[22] = test system: field corn (Zea mays L., var. Dekalb 535, CORN); assay: Pre-emerge test, crop safety; conditions: pre-emerge, 14 days after application, scale 0-100
In short: as §3

CCOC(=O)C(C)Oc1ccc(-n2c(=O)cc(C(F)(F)F)n(C)c2=O)c(NC(=O)c2ccc3ccccc3c2)c1 (centres unmarked) [2-146]
phytotoxicity rating AMARE ([1]; 63 g ai/ha): 30
phytotoxicity rating AMARE ([1]; 250 g ai/ha): 80
RICE phytotoxicity rating (crop damage) ([2]; 63 g ai/ha): 10
RICE phytotoxicity rating (crop damage) ([2]; 250 g ai/ha): 10
CORN phytotoxicity rating (crop damage) ([3]; 63 g ai/ha): 10
CORN phytotoxicity rating (crop damage) ([3]; 250 g ai/ha): 5
IPOHE phytotoxicity rating ([4]; 63 g ai/ha): 40
IPOHE phytotoxicity rating ([4]; 250 g ai/ha): 50
ECHCG phytotoxicity rating ([5]; 63 g ai/ha): 0
ECHCG phytotoxicity rating ([5]; 250 g ai/ha): 0
DIGSA phytotoxicity rating ([6]; 63 g ai/ha): 0
DIGSA phytotoxicity rating ([6]; 250 g ai/ha): 0
AMARE phytotoxicity rating ([7]; 63 g ai/ha): 30
AMARE phytotoxicity rating ([7]; 250 g ai/ha): 30
SORHA phytotoxicity rating ([8]; 63 g ai/ha): 0
SORHA phytotoxicity rating ([8]; 250 g ai/ha): 0
SETVI phytotoxicity rating ([9]; 63 g ai/ha): 0
SETVI phytotoxicity rating ([9]; 250 g ai/ha): 0
CASOB phytotoxicity rating ([10]; 63 g ai/ha): 20
CASOB phytotoxicity rating ([10]; 250 g ai/ha): 50
CHEAL phytotoxicity rating ([11]; 63 g ai/ha): 30
CHEAL phytotoxicity rating ([11]; 250 g ai/ha): 40
ABUTH phytotoxicity rating ([12]; 63 g ai/ha): 70
ABUTH phytotoxicity rating ([12]; 250 g ai/ha): 75
phytotoxicity rating IPOHE ([13]; 63 g ai/ha): 40
phytotoxicity rating IPOHE ([13]; 250 g ai/ha): 20
phytotoxicity rating ECHCG ([14]; 63 g ai/ha): 0
phytotoxicity rating ECHCG ([14]; 250 g ai/ha): 0
phytotoxicity rating DIGSA ([15]; 63 g ai/ha): 0
phytotoxicity rating DIGSA ([15]; 250 g ai/ha): 0
phytotoxicity rating SORHA ([16]; 63 g ai/ha): 0
phytotoxicity rating SORHA ([16]; 250 g ai/ha): 0
phytotoxicity rating SETVI ([17]; 63 g ai/ha): 0
phytotoxicity rating SETVI ([17]; 250 g ai/ha): 0
phytotoxicity rating CASOB ([18]; 63 g ai/ha): 20
phytotoxicity rating CASOB ([18]; 250 g ai/ha): 0
phytotoxicity rating CHEAL ([19]; 63 g ai/ha): 90
phytotoxicity rating CHEAL ([19]; 250 g ai/ha): 100
phytotoxicity rating ABUTH ([20]; 63 g ai/ha): 70
phytotoxicity rating ABUTH ([20]; 250 g ai/ha): 10
phytotoxicity rating RICE (crop damage) ([21]; 63 g ai/ha): 0
phytotoxicity rating RICE (crop damage) ([21]; 250 g ai/ha): 0
phytotoxicity rating CORN (crop damage) ([22]; 63 g ai/ha): 0
phytotoxicity rating CORN (crop damage) ([22]; 250 g ai/ha): 0
